Results as given in patent US8835440B2, “Cyclic pyrimidin-4-carboxamides as CCR2 receptor antagonists for treatment of inflammation, asthma and COPD” (Boehringer Ingelheim International GmbH, priority 2008, dated 2014).
pKi: −log10 of the molar value.

Target: T1, CCR2 (Homo sapiens, UniProt P41597)
T1 construct: Membranes were prepared from THP-1 cells; endogenous in cells; host or cells: THP-1 cells (membrane preparation)
T1 sequence (P41597 1-360 isoform P41597-2): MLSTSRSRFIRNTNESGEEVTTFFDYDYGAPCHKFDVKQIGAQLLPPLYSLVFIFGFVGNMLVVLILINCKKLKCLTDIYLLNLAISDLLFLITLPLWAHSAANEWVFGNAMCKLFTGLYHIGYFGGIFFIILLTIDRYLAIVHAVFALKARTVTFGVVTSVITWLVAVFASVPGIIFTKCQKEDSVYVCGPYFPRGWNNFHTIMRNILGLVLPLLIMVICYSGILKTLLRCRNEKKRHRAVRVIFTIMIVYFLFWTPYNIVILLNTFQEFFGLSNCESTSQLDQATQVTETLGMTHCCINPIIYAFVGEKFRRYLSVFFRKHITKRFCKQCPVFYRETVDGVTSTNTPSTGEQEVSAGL
Test: CCR2 receptor membrane binding assay ([125I]MCP-1, THP-1 cell membranes, SPA beads)
Conditions: for pKi: dissociation constant hKi, [125I]MCP-1 binding to THP-1 membranes; for remaining activity at 10 µM: @ 10 μM test compound, THP-1 membranes, read-out: CCR2 % ctrl @ 10 μM
Method in brief: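 Human THP-1 monocytic cell membranes, pre-coupled to WGA-PVT SPA beads, were incubated with compound and [125I]MCP-1 (ca. 25000 cpm) in 25 mM HEPES pH 7.2, 5 mM MgCl2, 0.5 mM CaCl2, 0.2% BSA, at 1% DMSO final. Bound radioactivity was counted after 8 h, and Ki was obtained by iterative mass-action fitting.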

Structure (SMILES) | pKi | remaining activity at 10 µM
Cc1c(NCC2CCCN(c3ccc(C(F)(F)F)cc3)C2)ncnc1C(=O)N1CCC(N2CCC(N(C)S(C)(=O)=O)CC2)CC1 (stereo not drawn) [Example 159w] | 8.05 | 
Cc1c(NC[C@H]2CC[C@H](c3ccc(Cl)cc3)O2)ncnc1C(=O)N1CCC(N2CCC(N(C)S(C)(=O)=O)CC2)CC1 [Example 159wa] | 7.48 | 
Cc1c(NC[C@H]2C[C@@H](c3ccc(Cl)cc3)C2)ncnc1C(=O)N1CCC(N2CCC(N(C)S(C)(=O)=O)CC2)CC1 [Example 159wb] | 7.80 | 
Cc1c(NCC2CCc3ccccc32)ncnc1C(=O)N1CCC(N2CCC(N(C)S(C)(=O)=O)CC2)CC1 (stereo not drawn) [Example 159x] | 6.83 | 
COc1ccc(C2CCCC(CNc3ncnc(C(=O)N4CCC(N5CCC(N(C)S(C)(=O)=O)CC5)CC4)c3C)C2)cc1 (stereo not drawn) [Example 159xa] | 7.68 | 
Cc1ccc([C@H]2CCC[C@@H](CNc3ncnc(C(=O)N4CCC(N5CCC(N(C)S(C)(=O)=O)CC5)CC4)c3C)C2)o1 [Example 159xb] | 8.22 | 
Cc1c(NCCc2cn(C)c3ccccc23)ncnc1C(=O)N1CCC(N2CCC(N(C)S(C)(=O)=O)CC2)CC1 [Example 159y] | 6.77 | 
Cc1nc(NC[C@H]2CC[C@H](c3ccc(F)c(C)c3)O2)c(C)c(C(=O)N2CCC(N3CCC(N(C)S(C)(=O)=O)CC3)CC2)n1 [Example 159ya] | 7.74 | 
Cc1c(NC[C@H]2C[C@@H](c3ccccc3)C2)ncnc1C(=O)N1CCC(N2CCC(N(C)S(C)(=O)=O)CC2)CC1 [Example 159yb] | 7.82 | 
Cc1c(NCC2CCCC(c3ccc(F)cc3)C2)ncnc1C(=O)N1CCC(N2CCC(N(C)S(C)(=O)=O)CC2)CC1 (stereo not drawn) [Example 159z] | 7.96 | 
Cc1ccc(C2CCCC(CNc3ncnc(C(=O)N4CCC(N5CCC(N(C)S(C)(=O)=O)CC5)CC4)c3C)C2)cc1 (stereo not drawn) [Example 159za] | 8.22 | 
Cc1c(NCC2CCCC(C(C)C)C2)ncnc1C(=O)N1CCC(N2CCC(N(C)S(C)(=O)=O)CC2)CC1 (stereo not drawn) [Example 159zb] | 7.82 | 
Cc1c(NCc2ccc(C(C)(C)C)cc2)ncnc1C(=O)N1CCCC(N2CCC(N(C)S(C)(=O)=O)CC2)CC1 (stereo not drawn) [Example 161] | 5.70 | 30%
Cc1c(NCc2ccc(C(C)(C)C)cc2)ncnc1C(=O)N1CCCC(N2CCOCC2)CC1 (stereo not drawn) [Example 162] | 5.42 | 43%
Cc1c(NCc2ccc(C(C)(C)C)cc2)ncnc1C(=O)N1CCCC(N2CCCC2)CC1 (stereo not drawn) [Example 163] | 5.81 | 32%
Cc1c(NCc2ccc(Cl)c(Cl)c2)ncnc1C(=O)N1CCC(N(C)CC2(C)COC2)CC1 [Example 180] | 5.32 | 60%
COCCN(C)C1CCN(C(=O)c2ncnc(NCc3ccc(Cl)c(Cl)c3)c2C)CC1 [Example 181] | 5.44 | 58%
Cc1c(NCc2ccc(Cl)c(Cl)c2)ncnc1C(=O)N1CCC(N(C)CC#N)CC1 [Example 182] | 5.52 | 53%
Cc1c(NCc2ccc(Cl)c(Cl)c2)ncnc1C(=O)N1CCC(N2Cc3ccccc3C2)CC1 [Example 183] | 6.37 | 45%
Cc1c(NCc2ccc(Cl)c(Cl)c2)ncnc1C(=O)N1CCC(N2CCC3(CC2)CCN(S(C)(=O)=O)C3)CC1 [Example 188] | 5.41 | 53%
Cc1c(NCc2ccc(Cl)c(Cl)c2)ncnc1C(=O)N1CCC(N2CCC(N3CCCS3(=O)=O)CC2)CC1 [Example 189] | 6.77 | 13%
Cc1c(NCc2ccc(Cl)c(Cl)c2)ncnc1C(=O)N1CCC(N2CCC3(CCNC3=O)CC2)CC1 [Example 190] | 6.11 | 27%
Cc1c(NCc2ccc(C(C)(C)C)cc2)ncnc1C(=O)N1CCC(N2CCC(S(=O)(=O)N(C)C)CC2)CC1 [Example 196] | 6.18 | 19%
CCOC1CCN(C2CCN(C(=O)c3ncnc(NCc4ccc(C(C)(C)C)cc4)c3C)CC2)CC1 [Example 198] | 7.24 | 1%
Cc1c(NCc2ccc(C(C)(C)C)cc2)ncnc1C(=O)N1CCC(N2CCC(CNS(C)(=O)=O)CC2)CC1 [Example 199] | 6.27 | 9%
Cc1c(NCc2ccc(C(C)(C)C)cc2)ncnc1C(=O)N1CCC(N2CCC(C(C)(C)C)CC2)CC1 [Example 200] | 6.97 | 5%
Cc1c(NCc2ccc(C(C)(C)C)cc2)ncnc1C(=O)N1CCC(N2CCC(c3ccncc3)CC2)CC1 [Example 201] | 7.00 | 6%

Other lines, results leading:

pKi | remaining activity at 10 µM | Structure (SMILES)
7.37 | 3% | CCN(C1CCN(C2CCN(C(=O)c3ncnc(NCc4ccc(Cl)c(Cl)c4)c3C)CC2)CC1)S(C)(=O)=O [Example 160]
6.45 | 15% | Cc1c(NCCc2ccc(Cl)c(Cl)c2)ncnc1C(=O)N1CCC(N2CCC(F)(F)CC2)CC1 [Example 164]
6.65 | 15% | Cc1c(NCCc2ccc(Cl)c(Cl)c2)ncnc1C(=O)N1CCC(N2CC[C@@H](O)C2)CC1 [Example 165]
6.64 | 16% | Cc1c(NCCc2ccc(Cl)c(Cl)c2)ncnc1C(=O)N1CCC(N2CC[C@H](O)C2)CC1 [Example 166]
6.61 | 16% | Cc1c(NCCc2ccc(Cl)c(Cl)c2)ncnc1C(=O)N1CCC(N2CCC(F)CC2)CC1 [Example 167]
7.29 | 9% | Cc1c(NCCc2ccc(Cl)c(Cl)c2)ncnc1C(=O)N1CCC(N2CCC(NS(C)(=O)=O)CC2)CC1 [Example 168]
5.64 | 54% | Cc1c(NCCc2ccc(Cl)c(Cl)c2)ncnc1C(=O)N1CCC(N2CCC[C@H](NS(C)(=O)=O)C2)CC1 [Example 169]
6.15 | 31% | Cc1c(NCCc2ccc(Cl)c(Cl)c2)ncnc1C(=O)N1CCC(N2CCC(NC(=O)C(C)C)CC2)CC1 [Example 170]
6.45 | 16% | CC(=O)NC1CCN(C2CCN(C(=O)c3ncnc(NCCc4ccc(Cl)c(Cl)c4)c3C)CC2)CC1 [Example 171]
6.13 | 28% | Cc1c(NCCc2ccc(Cl)c(Cl)c2)ncnc1C(=O)N1CCC(N2CCC(C(N)=O)CC2)CC1 [Example 172]
7.05 | 6% | CNC(=O)C1CCN(C2CCN(C(=O)c3ncnc(NCCc4ccc(Cl)c(Cl)c4)c3C)CC2)CC1 [Example 173]
5.57 | 53% | Cc1c(NCCc2ccc(Cl)c(Cl)c2)ncnc1C(=O)N1CCC(N2CCC[C@@H](NS(C)(=O)=O)C2)CC1 [Example 174]
6.36 | 14% | Cc1c(NCCc2ccc(Cl)c(Cl)c2)ncnc1C(=O)N1CCC(N2CCC[C@H](C(N)=O)C2)CC1 [Example 175]
6.19 | 31% | CNC(=O)[C@H]1CCCN(C2CCN(C(=O)c3ncnc(NCCc4ccc(Cl)c(Cl)c4)c3C)CC2)C1 [Example 176]
5.90 | 43% | Cc1c(NCCc2ccc(Cl)c(Cl)c2)ncnc1C(=O)N1CCC(N2CCC[C@H](C(=O)N(C)C)C2)CC1 [Example 177]
7.57 | 0% | CCN(C1CCN(C2CCN(C(=O)c3ncnc(NCCc4ccc(Cl)c(Cl)c4)c3C)CC2)CC1)S(C)(=O)=O [Example 178]
5.79 | 42% | Cc1c(NCCc2ccc(Cl)c(Cl)c2)ncnc1C(=O)N1CCC(N2CCC[C@H](C(=O)O)C2)CC1 [Example 179]
6.04 | 30% | Cc1c(NCc2ccc(Cl)c(Cl)c2)ncnc1C(=O)N1CCC(N2CCC(C(F)(F)F)CC2)CC1 [Example 184]
5.38 | 53% | CO[C@H]1CN(C2CCN(C(=O)c3ncnc(NCc4ccc(Cl)c(Cl)c4)c3C)CC2)CC[C@H]1NS(C)(=O)=O [Example 185]
7.11 | 8% | CNC(=O)C1CCN(C2CCN(C(=O)c3ncnc(NCc4ccc(Cl)c(Cl)c4)c3C)CC2)CC1 [Example 186]
6.59 | 15% | Cc1c(NCc2ccc(Cl)c(Cl)c2)ncnc1C(=O)N1CCC(N2CCC(NC(N)=O)CC2)CC1 [Example 187]
6.28 | 20% | CO[C@@H]1CN(C2CCN(C(=O)c3ncnc(NCc4ccc(Cl)c(Cl)c4)c3C)CC2)CC[C@H]1NS(C)(=O)=O [Example 191]
5.84 | 37% | Cc1c(NCc2ccc(Cl)c(Cl)c2)ncnc1C(=O)N1CCC(N2CCC(N3CCCC3=O)CC2)CC1 [Example 192]
5.81 | 35% | CNC(=O)C1CN(C2CCN(C(=O)c3ncnc(NCc4ccc(Cl)c(Cl)c4)c3C)CC2)C1 [Example 193]
6.31 | 25% | CC(=O)N(C)C1CCN(C2CCN(C(=O)c3ncnc(NCc4ccc(Cl)c(Cl)c4)c3C)CC2)CC1 [Example 194]
6.85 | 14% | CCS(=O)(=O)NC1CCN(C2CCN(C(=O)c3ncnc(NCc4ccc(Cl)c(Cl)c4)c3C)CC2)CC1 [Example 195]
7.48 | 4% | Cc1c(NCc2ccc(Cl)c(Cl)c2)ncnc1C(=O)N1CCC(N2CCC(NS(=O)(=O)C(C)C)CC2)CC1 [Example 197]
